Assay [1] relates to MNV-1. The experiment in a line: Sanitization wash of MNV-1 inoculated fresh produce, viral survivors by plaque assay. More on the design: species or system murine norovirus. The following applies: for virus reduction: 2 min wash.
Assay [2] concerns MNV-1. It is filed as cell-based, murine norovirus.
For assay [3], the system named is VSV. It is filed as cell-based, vesicular stomatitis virus (VSV) Indian strain.
Assay [4] concerns MNV-1. The experiment in a line: Transmission electron microscopy of purified MNV-1 after surfactant treatment. On the set-up: species or system murine norovirus.
Assay [5] deals with VSV. More on the design: species or system vesicular stomatitis virus (VSV) Indian strain. The settings on record: 10,000 ppm; 37° C.; 72 hours.
A further assay relates to foodborne viruses. The settings on record: cited from earlier work.
The mark [6] stands for this setting: 200 ppm surfactant, 37° C., 72 hours.

The text below walks through data of patent US20120219636A1, “ENHANCED REMOVAL OF VIRUSES FROM FRESH PRODUCE” (THE OHIO STATE UNIVERSITY, priority 2011, published 2012).

Read-outs that look alike come from different tables or passages of the source.

In the case of `CCCCCCCCCCCCOS(=O)(=O)[O-].[Na+]` [SDS, sodium dodecyl sulfate], the “enhancement of efficiency of virus reduction over traditional sanitizers (chlorine solution alone)” value with MNV-1 [1] (fresh produce) was found to be 100 fold. Further, the virus reduction with MNV-1 [1] (lettuce, 50 ppm surfactant alone) is 2.26 logs; with MNV-1 [1] (raspberries, 50 ppm surfactant alone), 2.63 logs; in the assay on MNV-1 [1] (strawberries, 50 ppm surfactant alone, room temperature), 3.14 logs; in the assay with MNV-1 [1] (strawberries, 100 ppm SDS alone) it was 3.41 logs; in the assay on MNV-1 [1] (strawberries, 200 ppm SDS alone), 3.12 logs; in the assay with MNV-1 [1] (strawberries, 1,000 ppm SDS alone) it was 3.51 logs. The virus reduction entry in the assay with MNV-1 [2] (10,000 ppm surfactant, 37° C., 72 hours) is “almost completely inactivated”; in the assay with VSV [3] (setting [6]), 7.5 logs; in the assay on VSV [3] (200 ppm, 37° C., 4 hours), 5 logs. The “virus inactivation confirmed by plaque assay” value with MNV-1 [2] is “completely inactivated”; in the assay with VSV [3] (purified VSV, 10,000 ppm, 37° C., 72 hours) it was “completely inactivated”. For the same compound, in the assay with MNV-1 [2] (1,000 ppm surfactant, 37° C., 72 hours), the “reduction in MNV-1 titer” value is on record as “highest reduction in MNV-1 titer”. Besides, the “damage to MNV-1 virus particles (electron microscopy)” value in the assay on MNV-1 [4] was “outer capsid of the MNV-1 was severely damaged and aggregated”. Also, in the assay on VSV [5], the “damage to VSV virus particles (electron microscopy)” value is “viral envelope was damaged and the shape of VSV was severely distorted”.
`CC(=O)OO` [peracetic acid]: the “additional reduction over tap water washing” value in the assay on foodborne viruses is listed as 0.77 logs.
Take `OCl` [sodium hypochlorite]: in the assay on foodborne viruses, the “additional virus reduction over tap water washing” value was 0.48 logs and the virus reduction entry is on record as “less than 1 log”.
Take NP40: the “virus reduction compared with tap water or chlorine solution” value in the assay with MNV-1 [1] (four types of fresh produce, 50 ppm surfactant alone) is given as “increased virus reduction than did tap water or chlorine solution”. The compound further displayed a virus reduction with VSV [3] of 10. logs.
Turning to Triton X-100, the “additional virus reduction than that of the chlorine solution” value in the assay with MNV-1 [1] was around 1 log. The compound further showed a virus reduction in the assay with VSV [3] (setting [6]) of 6.7 logs.
Tween 20 yielded a virus reduction in the assay on VSV [3] (setting [6]) of 2.7 logs.
